The values that follow are results of earlier work, collected in patent US20230022060A1, “TURKESTERONE HYDROXYPROPYL B-CYCLIC DEXTRIN COMPLEX AND METHOD OF MANUFACTURING THEREOF” (Gorilla Mind, LLC, priority 2021, published 2023).

In series [1] the test system is Staphylococcus aureus, Bacillus subtilis and Escherichia coli. Particulars: three bacteria.
The conditions of series [2]: 100 mL water at 25° C.

For `O=C(/C=C/c1ccc(O)c(O)c1)O[C@@H]1C[C@](O)(C(=O)O)C[C@@H](O)[C@H]1O` [chlorogenic acid], in series [1], the “difference of antimicrobial activity between chlorogenic acid and its complex” value is listed as “No significant difference”.

On to `OC[C@H]1O[C@@H]2O[C@H]3[C@H](O)[C@@H](O)[C@@H](O[C@H]4[C@H](O)[C@@H](O)[C@@H](O[C@H]5[C@H](O)[C@@H](O)[C@@H](O[C@H]6[C@H](O)[C@@H](O)[C@@H](O[C@H]7[C@H](O)[C@@H](O)[C@@H](O[C@H]1[C@H](O)[C@H]2O)O[C@@H]7CO)O[C@@H]6CO)O[C@@H]5CO)O[C@@H]4CO)O[C@@H]3CO` [α-cyclodextrin], for which the “amount that can be dissolved in water” value in series [2] is “About 14 g in 100 mL water”.
